Tests used:
[1] = tested on: wild-type (WT) strain of Measles Virus (MV); assay: Antiviral activity against a wild-type strain of Measles Virus; assay type: cell-based
Description: The antiviral activity of a cholesterol-derivatized inhibitors derived from the sequence of Human Parainfluenza virus type 3 (HPIV3) was tested against a wild-type (WT) strain of Measles Virus (MV).

[2] = tested on: dengue virus; conditions: dengue virus infectivity; cited from earlier work

Substance | fold more potent than the underivatized peptide [1] [fold] | antiviral activity [2]
Ac-VALDPIDISIVLNKAKSDLEESKEWIRRSNGKLDSIGSGSG-C(PEG4-Chol) (Ac-VALDPIDISIVLNKAKSDLEESKEWIRRSNGKLDSIGSGSG-{C(PEG4-cholesterol)}) | 5 | 
AWDFGSLGGVFTSIGKALHQVF (Dengue virus 2 (DV2)) [DV2^419-440] |  | very weak antiviral activity
[(Ac-VALDPIDISIVLNKAKSDLEESKEWIRRSNGKLDSIGSGSG-C(Mal-PEG4)]2-Chol | 250 | 

Reference: US20130196903A1 (priority 2010, published 2013)
